The values that follow come from PubChem BioAssay (NCI).

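Exposure lasted 48 hours, with cells grown in 96-well plates and compounds tested at five concentrations. TGI: total growth inhibition.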 Bounds are passed on as bounds.

Some test systems named below: COLO 205 colon; HS 578T breast; OVCAR-8 ovarian; SF-268 CNS; UACC-257 melanoma; TK-10 renal; MDA-MB-231 breast; HCC-2998 colon; 786-0 renal; EKVX NSCLC; K-562 leukemia.
What all share (assay): growth of human tumour cells (NCI), 48 h

`C=CCOC(=O)c1c(C)n([O-])c2cc(Cl)c(Cl)cc2[n+]1=O`: the TGI in the test on COLO 205 colon stood at 32.6 µM; with HS 578T breast it was 65.9 µM; with OVCAR-8 ovarian it was 41.9 µM; with SF-268 CNS, 29.5 µM; in the test on UACC-257 melanoma it was 37.9 µM; with TK-10 renal, 87.2 µM. Further, the TGI is 55 µM with MDA-MB-231 breast; 26.5 µM with HCC-2998 colon; 60.1 µM in the test with 786-0 renal; 41.1 µM in the test with EKVX NSCLC; greater than 100 µM in the test with K-562 leukemia.

With `CCOC(=O)C1(C#N)C2(C#N)C(N)=NC(ON=C(C)C)(ON=C(C)C)C12C#N` (stereo not drawn), the TGI in the test on COLO 205 colon, with HS 578T breast, in the test on OVCAR-8 ovarian, in the test with SF-268 CNS, with UACC-257 melanoma and in the test with TK-10 renal was greater than 100 µM in each case. The TGI with MDA-MB-231 breast, with HCC-2998 colon, with 786-0 renal, in the test with EKVX NSCLC and in the test with K-562 leukemia was greater than 100 µM throughout.

As to `C/C(=N\NC(=O)CC#N)C(CN1CCCCC1)C(c1ccccc1)c1c(O)c2ccccc2oc1=O` (stereo not drawn), the TGI in the test on COLO 205 colon is 32.6 µM; in the test on HS 578T breast, greater than 100 µM; with OVCAR-8 ovarian, greater than 100 µM; with SF-268 CNS, greater than 100 µM; in the test on UACC-257 melanoma, greater than 100 µM; with TK-10 renal it was greater than 100 µM. Also, the TGI in the test on MDA-MB-231 breast, in the test on HCC-2998 colon, in the test on 786-0 renal, in the test with EKVX NSCLC and in the test with K-562 leukemia was greater than 100 µM in each case.

For the molecule `CC(C)(C)c1ccc(O)c(C(c2ccc([N+](=O)[O-])cc2)c2cc(C(C)(C)C)ccc2O)c1`, the TGI with COLO 205 colon was 5.8 µM; with HS 578T breast it was 18.7 µM; in the test with OVCAR-8 ovarian, 7.82 µM; with SF-268 CNS, 3.16 µM; in the test on UACC-257 melanoma it was 3.41 µM; in the test on TK-10 renal, 7.39 µM. Moreover, the TGI was found to be 3.78 µM in the test on MDA-MB-231 breast; 3.44 µM with HCC-2998 colon; 3.8 µM in the test on 786-0 renal; 3.92 µM in the test on EKVX NSCLC; 7.35 µM in the test on K-562 leukemia.

`CN(C)C(=S)/N=c1\ssc(=S)n1Cc1cccs1`: the TGI in the test with COLO 205 colon was 6.41 µM; in the test with HS 578T breast, 5.17 µM; with OVCAR-8 ovarian, 52.9 µM; in the test with SF-268 CNS, greater than 100 µM; in the test on UACC-257 melanoma, greater than 75.4 µM; in the test on TK-10 renal, greater than 81.6 µM. The TGI in the test on MDA-MB-231 breast is greater than 100 µM; in the test on HCC-2998 colon it was greater than 100 µM; in the test with 786-0 renal, 52.5 µM; with EKVX NSCLC, greater than 94.6 µM; in the test on K-562 leukemia it was greater than 55.8 µM.

On to `COC1=CC(=O)c2c(cc(COP(N)(=O)N(CCCl)CCCl)n2C)C1=O` (stereo not drawn), for which the TGI in the test on COLO 205 colon is 3.08 µM; with HS 578T breast, greater than 100 µM; in the test on OVCAR-8 ovarian, 3.2 µM; with SF-268 CNS, 2.34 µM; in the test with UACC-257 melanoma, 14.2 µM; with TK-10 renal it was 5.61 µM. The TGI with MDA-MB-231 breast was 8.42 µM; in the test on HCC-2998 colon, 2.3 µM; in the test with 786-0 renal, 10.9 µM; with EKVX NSCLC, 1.62 µM; in the test on K-562 leukemia, 36.9 µM.

Regarding `O=C(/C=C/c1ccc(OCc2ccccc2)cc1)NCc1ccc(C(=O)NCc2ccccc2)cc1`, the TGI in the test with COLO 205 colon, in the test on HS 578T breast, in the test with OVCAR-8 ovarian, in the test on SF-268 CNS, with UACC-257 melanoma and in the test with TK-10 renal was greater than 100 µM in each case. Besides, the TGI in the test on MDA-MB-231 breast, with HCC-2998 colon, in the test on 786-0 renal, in the test on EKVX NSCLC and in the test with K-562 leukemia was greater than 100 µM each time.

Regarding `CNC(=O)c1cc2nc3ccccc3c(=O)n2c2ccccc12`, the TGI in the test on COLO 205 colon, in the test on HS 578T breast, in the test with OVCAR-8 ovarian, in the test on SF-268 CNS, in the test with UACC-257 melanoma and in the test on TK-10 renal was greater than 10 µM throughout. Moreover, the TGI with MDA-MB-231 breast, in the test on HCC-2998 colon, in the test on 786-0 renal, in the test on EKVX NSCLC and with K-562 leukemia was greater than 10 µM in each case.

Consider `O=S(c1ccccc1)C1CC2CC3(CCC21O)OCCO3` (stereo not drawn), for which the TGI in the test on COLO 205 colon, in the test with HS 578T breast, with OVCAR-8 ovarian, in the test on SF-268 CNS, in the test on UACC-257 melanoma and in the test on TK-10 renal was greater than 100 µM throughout. The TGI in the test with MDA-MB-231 breast, in the test on HCC-2998 colon, in the test with 786-0 renal, with EKVX NSCLC and with K-562 leukemia was greater than 100 µM each time.

As to `COc1cc(OCc2nc3cc(C(F)(F)F)ccc3nc2-c2ccccc2)cc(OC)c1OC`, the TGI with COLO 205 colon, with HS 578T breast, in the test with OVCAR-8 ovarian, in the test on SF-268 CNS, with UACC-257 melanoma and with TK-10 renal was greater than 100 µM in each case. For the same molecule, the TGI with MDA-MB-231 breast, in the test with HCC-2998 colon, in the test with 786-0 renal, in the test with EKVX NSCLC and with K-562 leukemia was greater than 100 µM throughout.

`CC(=O)NNc1nc(C)c(C(/C=C/c2ccc([N+](=O)[O-])cc2)=N/NC(N)=O)s1`: the TGI in the test on COLO 205 colon, in the test with HS 578T breast, in the test on OVCAR-8 ovarian, in the test with SF-268 CNS, in the test on UACC-257 melanoma and in the test on TK-10 renal was greater than 100 µM in each case. The TGI in the test on MDA-MB-231 breast, in the test with HCC-2998 colon, in the test on 786-0 renal, in the test with EKVX NSCLC and in the test on K-562 leukemia was greater than 100 µM in each case.

For the molecule `COCCOC(C)C(=O)C(O)S(=O)(=O)O` (stereo not drawn), the TGI in the test with COLO 205 colon, in the test with HS 578T breast, in the test with OVCAR-8 ovarian, with SF-268 CNS, in the test on UACC-257 melanoma and in the test on TK-10 renal was greater than 100 µM throughout. Further, the TGI in the test with MDA-MB-231 breast, in the test with HCC-2998 colon, in the test on 786-0 renal, with EKVX NSCLC and in the test on K-562 leukemia was greater than 100 µM in each case.

Take `C/C(=N/NC(=S)Nc1cccc(Cl)c1)c1ccccn1`: the TGI with COLO 205 colon stood at 5.18 µM; with HS 578T breast, 10.1 µM; in the test with OVCAR-8 ovarian it was 9.29 µM; in the test with SF-268 CNS, 12.5 µM; with UACC-257 melanoma, 2.41 µM; in the test on TK-10 renal, 10.4 µM. Also, the TGI in the test on MDA-MB-231 breast was 10.3 µM; with HCC-2998 colon, 17.5 µM; in the test on 786-0 renal it was 12.9 µM; in the test with EKVX NSCLC, 3.33 µM; in the test with K-562 leukemia, 2.85 µM.
